“Also recorded” adds a separate entry of the source.

A word on the IC50: it is the point on the concentration scale where inhibition reaches its midpoint. The Ki is the equilibrium dissociation constant of an inhibitor or competing ligand from its target.

The target in assay [1] is T1, human recombinant aromatase (Homo sapiens, UniProt P11511).
T1 construct: purchased BD Biosciences (Heidelberg, Germany)
T1 sequence (P11511 1-503): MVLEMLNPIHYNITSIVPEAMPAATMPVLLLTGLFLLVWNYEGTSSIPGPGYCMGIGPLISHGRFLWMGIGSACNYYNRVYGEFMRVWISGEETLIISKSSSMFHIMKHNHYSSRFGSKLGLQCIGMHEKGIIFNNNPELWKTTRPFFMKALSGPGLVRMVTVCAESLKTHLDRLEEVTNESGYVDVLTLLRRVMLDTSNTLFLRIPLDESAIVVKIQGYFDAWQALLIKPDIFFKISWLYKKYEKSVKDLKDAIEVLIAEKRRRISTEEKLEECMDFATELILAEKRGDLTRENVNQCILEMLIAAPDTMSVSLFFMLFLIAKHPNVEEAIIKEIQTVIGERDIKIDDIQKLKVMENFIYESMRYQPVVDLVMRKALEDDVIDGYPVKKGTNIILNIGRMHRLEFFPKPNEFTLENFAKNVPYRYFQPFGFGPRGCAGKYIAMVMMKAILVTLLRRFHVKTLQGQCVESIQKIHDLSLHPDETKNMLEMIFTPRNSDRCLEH
Briefly: Inhibitory effects against human recombinant aromatase (DBF fluorescence assay). The class given is biochemical. To be noted: substrate DBF; mean, N = 3. Here is the method:
Dibenzylfluorescein (DBF) and human CYP19 + P450 reductase SUPERSOMES (human recombinant aromatase) were purchased from BD Biosciences (Heidelberg, Germany) and testosterone from Tokyo Chemical Industry Co., Ltd. (Tokyo, Japan). The other chemicals used in this study were purchased from Wako Pure Chemical Industries, Co., Ltd. (Osaka, Japan).
The experiments were performed according to a previously described method. Briefly, a test sample was dissolved in dimethyl sulfoxide (DMSO), and the solution was diluted with potassium phosphate buffer (50 mM, pH 7.4) containing MgCl2 (0.5 mM) to obtain the test sample solution (concentration of DMSO: 2%). An enzyme/substrate solution in the buffer (20 µL, 1.6 µM DBF, 8 nM human recombinant aromatase) and the test sample solution (20 µL) were mixed in a 96-well half-area black microplate (Greiner Bio-One, Frickenhausen, Germany) at 37 °C for 10 min. The enzymatic reaction was initiated by adding NADPH solution (40 µL, 500 µM) at 37 °C for 30 min. After 30 min of incubation, NaOH (30 µL, 2 mM) was added, and the reaction mixture was incubated at 37 °C for 2 h to induce fluorescent signals (final DMSO concentration, 0.5%; aromatase, 2 nM; and NADPH, 250 µM). Fluorescence was measured using a fluorescence microplate reader (SH-9000, CORONA […] Co., Ltd., Ibaraki, Japan) at an excitation wavelength of 435 nm and emission wavelength of 535 nm. Experiments were performed in triplicate, and the IC50 values were determined graphically.

The target in assay [2] is T1, human recombinant aromatase. Description: Kinetic analysis of inhibitory activity against human recombinant aromatase using Lineweaver-Burk plots (testosterone substrate, estradiol EIA). The class given is biochemical. Particulars: for mode of inhibition of aromatase: Lineweaver–Burk plots; for Ki: testosterone 0.4–4 µM as substrate, secondary plot of Lineweaver–Burk, N = 3. From the text: In the assay system, we fixed the enzyme concentration, changed the substrate concentration, and obtained the kinetic parameters of the enzyme-catalyzed reaction using Lineweaver–Burk double reciprocal plot 1/[V] vs. 1/[S]. The inhibition constant Ki indicates the potency of an inhibitor and equals the concentration required to produce half-maximal inhibition. The Ki value was obtained from the intersection of the secondary plot with the x-axis (apparent Km/Vmax vs. inhibitor).
Experiments were performed using a previously described protocol, modified by using various concentrations of testosterone (0.4–4 µM) as substrates instead of DBF and the plate was heated at 37 °C for 15 min. After the reaction, the enzyme was inactivated by heating in a boiling water bath for 2 min. An estradiol EIA kit (Oxford Biomedical Research, Inc., Oxford, MI, USA) was used to develop an estradiol standard curve to determine the concentration of estradiol produced and to correlate the concentration of estradiol with the reaction velocity. The mode of inhibition was analyzed using the Lineweaver–Burk plot of the inverse of the reaction velocity of estradiol plotted on the vertical axis and the inverse of the final concentration of the substrate on the horizontal axis, with and without the test substance (Figure S27).

For the compound `C=C(C)c1cc2c(o1)c(C(=O)CCC)c(O)c1c(-c3ccccc3)cc(=O)oc12` [compound 4, mammeasin N], the IC50 in assay [1] came to 12 µM. In assay [2], the “mode of inhibition of aromatase” value is reported as “competitive inhibition; also recorded: competitive inhibitors” and the Ki turned out to be 2.6 µM.
The matching figures for `C=C(C)c1cc2c(o1)c(C(=O)CC(C)C)c(O)c1c(-c3ccccc3)cc(=O)oc12` [compound 5, mammeasin O]: 9.1 µM, “competitively inhibit; also recorded: competitive inhibition; also recorded: competitive inhibitors” and 2.3 µM.
For `CC[C@H](O)c1cc(=O)oc2c(C(=O)CC(C)C)c(O)c3c(c12)OC(C)(CCC=C(C)C)C=C3` (stereo partly shown) [compound 10, Mammeasin E], the half-maximal inhibitory concentration (IC50) in assay [1] is 11.1 µM. Besides, the Ki in assay [2] turned out to be 7.1 µM.
In the same order, the values of `CCC(C)C(=O)c1c(O)c2c(c3c([C@@H](O)CC)cc(=O)oc13)OC(C)(CCC=C(C)C)C=C2` (stereo partly shown) [compound 11, Mammeasin F] are 12.4 µM and 12.3 µM.
In the same order, the values of `CCCC(=O)c1c(O)c2c(c3c([C@@H](O)CC)cc(=O)oc13)OC(C)(CCC=C(C)C)C=C2` (stereo partly shown) [compound 23, Kayaessamin I] are 9.3 µM and 14.7 µM.
The matching figures for `CCCC(=O)c1c(O)c(CC=C(C)C)c(O)c2c(C(CC)OC(C)=O)cc(=O)oc12` (stereo not shown) [compound 38, Mammea E/BC]: 23.2 µM and 11.3 µM.
In the case of `CC(C)CC(=O)c1c2c(c3oc(=O)cc(-c4ccccc4)c3c1O)CC(C(C)(C)O)O2` (stereo not shown) [compound 39, Mammea A/AA cyclo F], the IC50 in assay [1] is 9.2 µM. For the same compound, in assay [2], the inhibition constant (Ki) was determined as 4.3 µM.

Source of the values: paper PMC9570088, “Phytochemicals with Chemopreventive Activity Obtained from the Thai Medicinal Plant Mammea siamensis (Miq.) T. Anders.: Isolation and Structure Determination of New Prenylcoumarins with Inhibitory Activity against Aromatase” (International Journal of Molecular Sciences, 2022).
